The source of these data is patent publication US20250339569A1, “CARBONIC ANHYDRASE IX LIGANDS” (priority 2021, published 2025).

Where two headings read alike, the source gives them in different places. Starred links: 1 amine or outer side, 2 acyl side, 3 side chain; linkers in the order of their positions; H or OH if unused. Positions of bridges follow the written chain, without caps; N, C: chain ends. Non-standard residues stand in square brackets, D forms with d. Residues, ends and D or L forms follow the SMILES beside them. *: point of attachment. X47 = NC(=O)[C@H](CCCCNC(=O)CCCC[C@@H]1SC[C@@H]2NC(=O)N[C@@H]21)NC(=O)CCC(=O)NCCCOCCOCCOCCCN*; X69 = CC1(C)C(/C=C/C=C/C=C2\N(CCCCS(=O)(=O)O)c3ccccc3C2(C)C)=[N+](CCCCCC(=O)*)c2ccccc21; Phe(3-NHCO(CH2)3SO2NH2) = N[C@@H](Cc1cccc(NC(=O)CCCS(N)(=O)=O)c1)C(=O)O; X4 = CS(=O)(=O)CC(=O)Nc1cccc(C[C@H](N[*:1])C(=O)[*:2])c1; DOTA = O=C(O)CN1CCN(CC(=O)O)CCN(CC(=O)*)CCN(CC(=O)O)CC1; X5 = O=C(O)CCCC(=O)Nc1cccc(C[C@H](N[*:1])C(=O)[*:2])c1; X6 = O=C(O)CCC(=O)Nc1cccc(C[C@H](N[*:1])C(=O)[*:2])c1; mXylylene = c1cc(C[*:1])cc(C[*:2])c1; X2 = O=C(CN1CCC(N[*:1])CC1)[*:2]; Dap = NC[C@H](N)C(=O)O

The target of series [1] is T1, CAIX-expressing human HT-29 colorectal cancer cells (Homo sapiens, UniProt Q16790).
T1 construct: CAIX-expressing human HT-29 colorectal cancer cells; host or cells: HT-29 human colorectal cancer cells
The series is described as follows: FACS binding assay (EC50 determination, labeled compound). The following applies: biotinylated or fluorophore-labeled compound, HT-29 cells, 4°C, 1 hour, read-out: pEC50 category (activity) (converted). How it is done: In order to determine binding of compounds according to the present invention to CAIX-expressing cells, a FACS binding assay was established.
CAIX-expressing human HT-29 colorectal cancer cells (DSMZ, RRID: CVCL_0320) were cultured in McCoys's 5A modified medium (Biochrom, #F1015) including 10% fetal calf serum (FCS), 2 mM L-glutamine, 100 U/ml penicillin and 100 μg/mL streptomycin. Cells were detached with Accutase (Biolegend, #423201) and washed in FACS buffer (PBS including 1% FCS). Cells were diluted in FACS buffer to a final concentration of 500.000 cells per ml. 200 μL of the cell suspension were transferred to a u-shaped non-binding 96-well plate (Greiner) and cells were washed in ice-cold FACS buffer.
When biotinylated compounds were used an additional incubation step with 1 μg/mL APC-Streptavidin (Miltenyi; #130-106-791) in 50 μL FACS buffer for 30 minutes on ice was performed.
Cells were washed twice with ice-cold FACS buffer and analyzed in an Attune NxT flow cytometer (Thermo Fisher). Median fluorescence intensities (MFI) of the APC/Cy5-channel were calculated by Attune NxT software. MFI values were plotted against peptide concentration and four parameter logistic (4PL) curve fitting and EC50/pEC50 or IC50/pIC50 calculations were performed using ActivityBase software.

Series [2] can be described thus: Plasma stability assay, mouse plasma. The following applies: mouse plasma, 37°C, 24 h.
The target of another series is T2, CAIV (hCAIV-bio) (Homo sapiens, UniProt P22748).
T2 construct: purchased SinoBliological (Sino Biological) 10472-1H081H
T2 sequence (P22748 19-284): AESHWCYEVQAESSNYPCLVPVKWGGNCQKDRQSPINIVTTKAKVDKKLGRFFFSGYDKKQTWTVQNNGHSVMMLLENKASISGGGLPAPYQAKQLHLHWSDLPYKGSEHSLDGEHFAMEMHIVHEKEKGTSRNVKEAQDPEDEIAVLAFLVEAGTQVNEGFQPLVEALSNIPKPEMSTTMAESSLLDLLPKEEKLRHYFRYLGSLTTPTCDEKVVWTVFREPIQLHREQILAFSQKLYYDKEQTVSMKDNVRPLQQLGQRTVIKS
Description: SPR selectivity assay with biotinylated CAIV. Format: binding. The conditions noted are these: SPR, biotinylated CAIV; read-out: pKD category (affinity) CAIV (converted). As to the method: (§1) In order to test selectivity of CAIX-binding peptides toward CAIV (SinoBliological, Cat #10472-1H081H), CAXII (SinoBliological, Cat #10617-H08H or CAXIV (SinoBliological, Cat #10458-H08H), SPR assays were performed analog to the assay described above but with a different target capture procedure. For immobilization, the carbonic anhydrases were biotinylated and capture on the SPR chip using the Biotin CAPture Kit (cytiva) according to the manufacturer instructions using HBSTE, 0.1% as Running Buffer.
(§2) Table 13 describes the protocol steps for biotinylated target capturing and assessment of the binding kinetics.

The target in series [3] is T1, CAIX-expressing human HT-29 colorectal cancer cells. Description: FACS binding assay (IC50 determination, competition with tracer 3BP-2776 or 3BP-4149). The conditions noted are these: FACS binding assay, HT-29 cells, 4° C., 1 hour, read-out: pIC50 category (activity) (converted). The gist of the method: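 HT-29 cells in FACS buffer (PBS, 1% FCS) at 500.000 cells/ml were exposed to compounds competing with a labelled tracer, with biotinylated compounds detected by 1 μg/mL APC-streptavidin for 30 min on ice. APC/Cy5 median fluorescence was read by flow cytometry and IC50 derived by 4PL fit.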

A further series deals with T3, CAXII (hCAXII-bio) (Homo sapiens, UniProt O43570).
T3 construct: purchased SinoBliological (Sino Biological) 10617-H08H
T3 sequence (O43570 25-354): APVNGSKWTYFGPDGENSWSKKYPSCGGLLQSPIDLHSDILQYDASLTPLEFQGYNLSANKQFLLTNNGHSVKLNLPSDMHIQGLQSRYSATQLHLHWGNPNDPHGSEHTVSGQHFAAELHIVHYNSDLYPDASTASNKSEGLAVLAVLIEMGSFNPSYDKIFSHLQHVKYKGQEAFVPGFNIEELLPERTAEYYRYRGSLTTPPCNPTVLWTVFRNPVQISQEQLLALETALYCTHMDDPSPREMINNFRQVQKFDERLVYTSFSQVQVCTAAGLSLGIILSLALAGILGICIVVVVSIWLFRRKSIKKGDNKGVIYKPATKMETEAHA
The series is described as follows: SPR selectivity assay with biotinylated CAXII. Format: binding. The conditions noted are these: SPR, biotinylated CAXII; read-out: pKD category (affinity) CAXII (converted). As to the method: as §1, §2

Series [4] has as its target T4, human carbonic anhydrase IX (hCAIX-Fc) (Homo sapiens, UniProt Q16790).
T4 construct: purchased SinoBliological (Sino Biological) 10107-H02H
Description: Surface plasmon resonance assay with hCAIX-Fc. It is filed as binding. The following applies: 25° C.; for t1/2 category (activity): SPR dissociation half-life, hCAIX-Fc; for Kd: SPR, hCAIX-Fc captured, read-out: pKD category (activity) (converted).

For a further series, the target named is T5, CAXIV (hCAXIV-bio) (Homo sapiens, UniProt Q9ULX7).
T5 construct: purchased SinoBliological (Sino Biological) 10458-H08H
T5 sequence (Q9ULX7 16-337): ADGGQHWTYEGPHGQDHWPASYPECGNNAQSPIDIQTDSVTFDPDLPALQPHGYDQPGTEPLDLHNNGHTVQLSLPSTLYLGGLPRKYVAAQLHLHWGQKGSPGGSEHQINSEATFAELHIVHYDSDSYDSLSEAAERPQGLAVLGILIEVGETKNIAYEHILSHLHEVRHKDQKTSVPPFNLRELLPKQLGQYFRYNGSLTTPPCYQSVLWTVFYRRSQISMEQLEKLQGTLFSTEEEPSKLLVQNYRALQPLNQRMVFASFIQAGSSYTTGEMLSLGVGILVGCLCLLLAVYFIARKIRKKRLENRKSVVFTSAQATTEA
The series is described as follows: SPR selectivity assay with biotinylated CAXIV. It is filed as binding. The conditions noted are these: SPR, biotinylated CAXIV; read-out: pKD category (affinity) CAXIV (converted). How it is done:
as §1, §2

The conditions of series [5]: mouse, plasma, 24 h.
[6] abbreviates: competition with tracer 3BP-2776 (10 nM, biotin-labeled).
Setting [7] is: competition with tracer 3BP-4149 (3 nM, Cy5-labeled).

Consider `CC[C@H](C)[C@@H]1NC(=O)[C@H](CCC(=O)O)NC(=O)[C@@H](NC(=O)[C@H](CCCNC(=N)N)NC(=O)[C@@H](N)CCSC)CSCc2cccc(c2)CSC[C@@H](C(=O)NCCCOCCOCCOCCCNC(=O)CCC(=O)N[C@@H](CCCCNC(=O)CCCC[C@@H]2SC[C@@H]3NC(=O)N[C@@H]32)C(N)=O)NC(=O)[C@H](CC(=O)O)NC(=O)[C@H](C(C)C)NC(=O)[C@H](Cc2c[nH]c3ccccc23)NC(=O)CNC(=O)[C@H](CC(=O)O)NC(=O)[C@H](C(C)C)NC(=O)[C@H](Cc2c[nH]c3ccccc23)NC1=O` [3BP-2778] (H-MRCEIWVDGWVDC-X47; linker 3-13 via mXylylene), for which the EC50 in series [1] is below 10 nM.

For `CC(C)C[C@@H]1NC(=O)[C@H](Cc2c[nH]c3ccccc23)NC(=O)[C@H](CC(=O)O)NC(=O)[C@H]2CCCN2C(=O)[C@H](CCC(=O)O)NC(=O)[C@@H](NC(=O)[C@H](Cc2ccc(O)cc2)NC(=O)[C@@H](NC(=O)CN2CCC(NC(=O)CCCCC[N+]3=C(/C=C/C=C/C=C4\N(CCCCS(=O)(=O)O)c5ccccc5C4(C)C)C(C)(C)c4ccccc43)CC2)C(C)C)CSCc2cccc(c2)CSC[C@@H](C(N)=O)NC(=O)[C@H](CO)NC(=O)[C@H](Cc2c[nH]c3ccccc23)NC(=O)[C@H]([C@@H](C)O)NC1=O` [3BP-4149, Cy5SO3-APAc-Val-Tyr-[Cys(3MeBn)-Glu-pro-Asp-Trp-Leu-Thr-Trp-Ser-Cys]-NH2] (X69-[X2]VYCE[dP]DWLTWSC-NH2; linker 4-13 via mXylylene), in series [1], the EC50 is below 10 nM.

For `CC(C)C[C@@H]1NC(=O)[C@H](Cc2c[nH]c3ccccc23)NC(=O)[C@H](CC(=O)O)NC(=O)[C@H]2CCCN2C(=O)[C@H](CCC(=O)O)NC(=O)[C@@H]2CSCc3cccc(c3)CSC[C@@H](C(N)=O)NC(=O)[C@H](CNC(=O)C[C@H](NC(=O)[C@@H](NC(=O)CN3CCC(NC(=O)CN4CCN(CC(=O)O)CCN(CC(=O)O)CCN(CC(=O)O)CC4)CC3)C(C)C)C(=O)N2)NC(=O)[C@H](Cc2c[nH]c3ccccc23)NC(=O)[C@H]([C@@H](C)O)NC1=O` [3BP-4174, DOTA-APAc-Val-{Asp-[Cys(3MeBn)-Glu-pro-Asp-Trp-Leu-Thr-Trp-Dap}-Cys]-NH2] ({DOTA}-[X2]VDCE[dP]DWLTW[Dap]C-NH2; lactam 3-12; linker 4-13 via mXylylene), the “% intact compound remaining (incubation time)” value (“% intact compound remaining” below) in series [2] is recorded as above 95%. Besides, the Kd on CAIV (hCAIV-bio) was above 1000 nM; at CAXII (hCAXII-bio) it was above 1000 nM; in series [4], below 10 nM; on CAXIV (hCAXIV-bio) it was above 1000 nM. In series [3] (setting [6]), the IC50 was below 10 nM. The “t1/2 category (activity)” value in series [4] is reported as “A (t1/2>15.0 minutes)”.

As for `CC(C)C[C@@H]1NC(=O)[C@H](Cc2cccc(NC(=O)CCC(=O)O)c2)NC(=O)[C@H](CC(=O)O)NC(=O)[C@H]2CCCN2C(=O)[C@H](CCC(=O)O)NC(=O)[C@@H](NC(=O)[C@H](Cc2ccc(O)cc2)NC(=O)[C@@H](NC(=O)CN2CCC(NC(=O)CN3CCN(CC(=O)O)CCN(CC(=O)O)CCN(CC(=O)O)CC3)CC2)C(C)C)CSCc2cccc(c2)CSC[C@@H](C(N)=O)NC(=O)[C@H](CO)NC(=O)[C@H](Cc2c[nH]c3ccccc23)NC(=O)[C@H]([C@@H](C)O)NC1=O` [3BP-4237, DOTA-APAc-Val-Tyr-[Cys(3MeBn)-Glu-pro-Asp-Af3(HO-Succinyl)-Leu-Thr-Trp-Ser-Cys]-NH2] ({DOTA}-[X2]VYCE[dP]D[X6]LTWSC-NH2; linker 4-13 via mXylylene), in series [3] (setting [6]), the IC50 was below 10 nM. Also, in series [5], the “% intact compound remaining” value is above 95%. In series [4], the “t1/2 category (activity)” value is recorded as “A (t1/2>15.0 minutes)” and the Kd was below 10 nM.

On to `CC(C)C[C@@H]1NC(=O)[C@H](Cc2cccc(NC(=O)CS(C)(=O)=O)c2)NC(=O)[C@H](CC(=O)O)NC(=O)[C@H]2CCCN2C(=O)[C@H](CCC(=O)O)NC(=O)[C@@H](NC(=O)[C@H](Cc2ccc(O)cc2)NC(=O)[C@@H](NC(=O)CN2CCC(NC(=O)CN3CCN(CC(=O)O)CCN(CC(=O)O)CCN(CC(=O)O)CC3)CC2)C(C)C)CSCc2cccc(c2)CSC[C@@H](C(N)=O)NC(=O)[C@H](CO)NC(=O)[C@H](Cc2c[nH]c3ccccc23)NC(=O)[C@H]([C@@H](C)O)NC1=O` [3BP-4242] ({DOTA}-[X2]VYCE[dP]D[X4]LTWSC-NH2; linker 4-13 via mXylylene), for which the IC50 in series [3] (setting [6]) was below 10 nM. Further, the “% intact compound remaining” value in series [5] was above 95%. Moreover, in series [4], the “t1/2 category (activity)” value was “B (t1/2 between 5.1 and 15.0 minutes)”; the Kd was below 10 nM.

Turning to `CC(C)C[C@@H]1NC(=O)[C@H](Cc2cccc(NC(=O)CCCC(=O)O)c2)NC(=O)[C@H](CC(=O)O)NC(=O)[C@H]2CCCN2C(=O)[C@H](CCC(=O)O)NC(=O)[C@@H](NC(=O)[C@H](Cc2ccc(O)cc2)NC(=O)[C@@H](NC(=O)CN2CCC(NC(=O)CN3CCN(CC(=O)O)CCN(CC(=O)O)CCN(CC(=O)O)CC3)CC2)C(C)C)CSCc2cccc(c2)CSC[C@@H](C(N)=O)NC(=O)[C@H](CO)NC(=O)[C@H](Cc2c[nH]c3ccccc23)NC(=O)[C@H]([C@@H](C)O)NC1=O` [3BP-4367] ({DOTA}-[X2]VYCE[dP]D[X5]LTWSC-NH2; linker 4-13 via mXylylene), the IC50 in series [3] (setting [7]) was below 10 nM. Further, the “% intact compound remaining” value in series [5] is given as above 95%. Moreover, in series [4], the “t1/2 category (activity)” value is “A (t1/2>15.0 minutes)” and the Kd was below 10 nM.

On to `CC(C)C[C@@H]1NC(=O)[C@H](Cc2cccc(NC(=O)CCCS(N)(=O)=O)c2)NC(=O)[C@H](CC(=O)O)NC(=O)[C@H]2CCCN2C(=O)[C@H](CCC(=O)O)NC(=O)[C@@H](NC(=O)[C@H](Cc2ccc(O)cc2)NC(=O)[C@@H](NC(=O)CN2CCC(NC(=O)CN3CCN(CC(=O)O)CCN(CC(=O)O)CCN(CC(=O)O)CC3)CC2)C(C)C)CSCc2cccc(c2)CSC[C@@H](C(N)=O)NC(=O)[C@H](CO)NC(=O)[C@H](Cc2c[nH]c3ccccc23)NC(=O)[C@H]([C@@H](C)O)NC1=O` [3BP-4369] ({DOTA}-[X2]VYCE[dP]D[Phe(3-NHCO(CH2)3SO2NH2)]LTWSC-NH2; linker 4-13 via mXylylene), for which the IC50 in series [3] (setting [7]) is below 10 nM. In addition, in series [5], the “% intact compound remaining” value was above 95%. Moreover, in series [4], the “t1/2 category (activity)” value is recorded as “A (t1/2>15.0 minutes)” and the Kd was below 10 nM.
